Data set [1] can be described thus: Bimatoprost sampled in the aqueous humor of dogs over time (FIG. 9). It counts as in vivo. The text has this: In this example, there was a low dose group of dogs (Grp 1), a mid-dose group of dogs (Grp 2), a high dose group of dogs (Grp 3), and a placebo group of dogs (Grp 4).
The nature of data set [2]: daily release or elution of Bimatoprost in vitro versus time (FIG. 8). In kind it is physicochemical. As to conditions: four-hundred-day study.

On to `CCNC(=O)CCC/C=C\C[C@@H]1[C@@H](/C=C/[C@@H](O)CCc2ccccc2)[C@H](O)C[C@@H]1O` [Bimatoprost], for which the “level of Bimatoprost in the aqueous humor, elution kinetics” value in data set [1] (low dose (Grp 1), mid-dose (Grp 2) and high dose (Grp 3) groups, study period of about one hundred thirteen days) is given as “zero-order elution rate”. Moreover, the “mean measurements of Bimatoprost in the aqueous humor, dose dependence” value in data set [1] (low, mid and high dose groups) is “increased with the higher doses”. In addition, in data set [2], the “release kinetics over the study” value is listed as “essentially a zero-order and/or a steady state elution rate”. For the same compound, the average release rate result in data set [2] (drug delivery component) was “less than 0.100 micrograms per day”.

For the origin of these results see US12193972B2, “Intraocular drug delivery systems and methods of use” (SpyGlass Pharma, Inc., priority 2022, dated 2025).
